Values joined by “and” are separate entries in the source; they are usually repeats but may differ in a detail not shown here. Identical values can stand only once. Counter-ions that a name gives are not always drawn. Like-named read-outs stand apart in the source and are kept apart here.
Legend:
ROCK1 = ROCK1 (Homo sapiens (Human), UniProt Q13464); assay: FRET-based Z'-Lyte kinase assay, ROCK1; format: biochemical; conditions: for IC50: read-out: IC50 ± SD (μM) ROCK1; for inhibition at 50 µM: read-out: ROCK1 % inhibition @ 50 μM;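 for all read-outs here: kinase phosphorylates a coumarin/fluorescein-labelled FRET peptide, then a protease cleaves unphosphorylated peptide, progress read as donor to acceptor emission ratio after 400 nm excitation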
Source text: (§1) A) In the primary reaction, the Rho kinases phosphorylates a single serine or threonine residue in a synthetic FRET-peptide. This FRET-peptide is doubly labeled with a fluorophore at each end—coumarin (the FRET donor) on one end and fluorescein (the FRET acceptor) on the other—and also contains a single phosphorylation site which either overlaps with or lies adjacent to the proteolytic site. B) In the secondary reaction, a site-specific protease recognizes and cleaves the non-phosphorylated FRET-peptide. Cleavage disrupts FRET between the donor and acceptor fluorophores on the FRET-peptide, whereas uncleaved, phosphorylated FRET-peptides maintain FRET. Kinases phosphorylated FRET-peptides cannot be cleaved by the protease. […] Cleavage disrupts FRET and causes a decrease in the fluorescein fluorescence signal and a strong increase in the coumarin fluorescence signal. Therefore the extension of the phosphprylation can be measured by FRET-signal remaining the protease reaction. The assay uses a ratiometric method, which calculates the ratio of donor emission to acceptor emission (the emission ratio) after excitation of the donor fluorophore at 400 nm, to quantitate reaction progress.
(§2) All compounds were systematically screened against ROCK1 and ROCK2.

ROCK2 = ROCK2 (Homo sapiens (Human), UniProt O75116); assay: FRET-based Z'-Lyte kinase assay, ROCK2; format: biochemical; conditions: read-out: IC50 ± SD (μM) ROCK2;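 note: kinase phosphorylates a coumarin/fluorescein FRET peptide, then a protease cleaves unphosphorylated peptide, read as donor/acceptor emission ratio after 400 nm excitation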
Chain of ROCK2 (O75116 whole entry, species assumed): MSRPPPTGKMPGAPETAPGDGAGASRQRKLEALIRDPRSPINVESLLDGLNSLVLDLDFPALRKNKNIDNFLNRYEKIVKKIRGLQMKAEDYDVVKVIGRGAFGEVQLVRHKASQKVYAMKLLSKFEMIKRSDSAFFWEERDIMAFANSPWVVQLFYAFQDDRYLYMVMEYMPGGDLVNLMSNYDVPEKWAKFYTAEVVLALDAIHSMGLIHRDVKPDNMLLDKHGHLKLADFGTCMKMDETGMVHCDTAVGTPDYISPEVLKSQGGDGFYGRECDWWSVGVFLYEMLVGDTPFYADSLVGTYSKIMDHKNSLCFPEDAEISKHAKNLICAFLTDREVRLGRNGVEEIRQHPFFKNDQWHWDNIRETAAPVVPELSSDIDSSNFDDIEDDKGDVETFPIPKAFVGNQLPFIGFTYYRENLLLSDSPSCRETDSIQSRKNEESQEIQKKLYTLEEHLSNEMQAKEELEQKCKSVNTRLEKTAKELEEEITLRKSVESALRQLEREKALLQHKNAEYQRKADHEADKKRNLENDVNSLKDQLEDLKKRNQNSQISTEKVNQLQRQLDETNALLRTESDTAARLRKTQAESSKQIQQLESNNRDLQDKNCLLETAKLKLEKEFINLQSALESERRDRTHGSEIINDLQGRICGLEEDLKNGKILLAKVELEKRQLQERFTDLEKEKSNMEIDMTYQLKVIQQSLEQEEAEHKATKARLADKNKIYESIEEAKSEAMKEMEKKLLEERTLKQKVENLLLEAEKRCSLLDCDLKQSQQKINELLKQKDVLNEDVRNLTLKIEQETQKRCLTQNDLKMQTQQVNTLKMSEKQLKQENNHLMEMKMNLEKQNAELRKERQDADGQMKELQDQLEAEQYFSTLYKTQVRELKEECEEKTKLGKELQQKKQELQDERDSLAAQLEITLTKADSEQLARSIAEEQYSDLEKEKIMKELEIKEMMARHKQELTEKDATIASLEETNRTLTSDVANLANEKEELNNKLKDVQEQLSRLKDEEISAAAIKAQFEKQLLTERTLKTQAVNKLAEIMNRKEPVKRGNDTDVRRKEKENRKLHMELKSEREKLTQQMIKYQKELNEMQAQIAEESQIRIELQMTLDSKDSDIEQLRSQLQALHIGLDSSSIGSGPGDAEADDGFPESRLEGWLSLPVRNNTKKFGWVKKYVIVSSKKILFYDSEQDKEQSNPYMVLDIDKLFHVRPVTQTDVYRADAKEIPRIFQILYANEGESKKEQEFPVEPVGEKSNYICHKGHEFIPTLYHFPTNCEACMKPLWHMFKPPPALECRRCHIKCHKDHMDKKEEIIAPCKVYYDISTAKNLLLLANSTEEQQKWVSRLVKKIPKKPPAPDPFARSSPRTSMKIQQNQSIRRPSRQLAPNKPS
Source text: as §1, §2

Chain of ROCK1 (Q13464 whole entry, species assumed): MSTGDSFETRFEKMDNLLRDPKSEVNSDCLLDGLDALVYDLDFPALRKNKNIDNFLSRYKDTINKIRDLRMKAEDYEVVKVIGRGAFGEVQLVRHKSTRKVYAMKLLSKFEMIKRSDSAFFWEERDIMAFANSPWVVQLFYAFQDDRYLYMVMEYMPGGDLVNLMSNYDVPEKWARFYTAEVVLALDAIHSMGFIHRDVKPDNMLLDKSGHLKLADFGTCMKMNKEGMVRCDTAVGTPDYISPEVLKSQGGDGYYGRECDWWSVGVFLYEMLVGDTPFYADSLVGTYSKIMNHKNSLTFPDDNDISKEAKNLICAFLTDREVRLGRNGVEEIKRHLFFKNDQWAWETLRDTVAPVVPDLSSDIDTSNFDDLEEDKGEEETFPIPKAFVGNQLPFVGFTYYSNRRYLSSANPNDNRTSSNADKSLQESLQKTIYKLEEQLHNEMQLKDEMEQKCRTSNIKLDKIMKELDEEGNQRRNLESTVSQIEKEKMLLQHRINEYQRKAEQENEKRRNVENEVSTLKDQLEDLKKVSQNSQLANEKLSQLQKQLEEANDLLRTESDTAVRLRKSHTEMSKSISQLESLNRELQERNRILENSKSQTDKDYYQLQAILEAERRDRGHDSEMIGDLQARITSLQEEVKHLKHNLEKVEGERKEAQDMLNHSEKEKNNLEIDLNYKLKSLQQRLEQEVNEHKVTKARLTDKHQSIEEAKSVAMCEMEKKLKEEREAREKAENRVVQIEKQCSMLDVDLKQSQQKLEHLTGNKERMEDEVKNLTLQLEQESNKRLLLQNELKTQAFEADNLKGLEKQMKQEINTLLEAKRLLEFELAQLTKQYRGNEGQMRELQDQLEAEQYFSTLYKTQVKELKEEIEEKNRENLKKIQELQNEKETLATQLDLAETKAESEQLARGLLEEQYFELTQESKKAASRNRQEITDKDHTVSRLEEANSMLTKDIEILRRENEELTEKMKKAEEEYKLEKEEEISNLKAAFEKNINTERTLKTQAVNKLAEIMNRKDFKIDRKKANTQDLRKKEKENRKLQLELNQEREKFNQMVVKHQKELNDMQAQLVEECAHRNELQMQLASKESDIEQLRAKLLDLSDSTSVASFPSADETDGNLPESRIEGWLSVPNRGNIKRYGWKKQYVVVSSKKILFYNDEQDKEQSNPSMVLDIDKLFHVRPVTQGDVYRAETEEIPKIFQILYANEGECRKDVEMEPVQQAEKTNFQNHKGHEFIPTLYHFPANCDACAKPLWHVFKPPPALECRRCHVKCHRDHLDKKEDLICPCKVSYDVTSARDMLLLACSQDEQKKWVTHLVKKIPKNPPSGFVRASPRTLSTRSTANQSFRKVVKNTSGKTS

## O=C(NCc1ccccc1)Nc1nc(-c2ccncc2)cs1 [Compound 1aa, 1-Benzyl-3-(4-(pyridin-4-yl)thiazol-2-yl)urea]
ROCK1
  IC50: 0.15 µM and 0.17 µM
ROCK2
  IC50: 0.09 µM and 0.05 µM

## O=C(NCc1ccc(Cl)cc1)Nc1nc(-c2ccncc2)cs1 [Compound 1ab, 1-(4-Chlorobenzyl)-3-(4-(pyridin-4-yl)thiazol-2-yl)urea]
ROCK1
  IC50: 2.39 ± 0.53 µM
ROCK2
  IC50: 1.1 ± 0.16 µM

## O=C(NCc1ccccc1F)Nc1nc(-c2ccncc2)cs1 [Compound 1ac, 1-(2-Fluorobenzyl)-3-(4-(pyridin-4-yl)thiazol-2-yl)urea]
ROCK1
  IC50: 0.4 ± 0.03 µM
ROCK2
  IC50: 0.12 ± 0.01 µM

## COc1ccccc1CNC(=O)Nc1nc(-c2ccncc2)cs1 [Compound 1ad, 1-(2-Methoxybenzyl)-3-(4-(pyridin-4-yl)thiazol-2-yl)urea]
ROCK1
  IC50: 1.4 ± 0.11 µM
ROCK2
  IC50: 0.47 ± 0.03 µM

## O=C(NCc1ccccc1Cl)Nc1nc(-c2ccncc2)cs1 [Compound 1ae, 1-(2-Chlorobenzyl)-3-(4-(pyridin-4-yl)thiazol-2-yl)urea]
ROCK1
  IC50: 0.34 ± 0.02 µM
ROCK2
  IC50: 0.11 ± 0.01 µM

## COc1cccc(CNC(=O)Nc2nc(-c3ccncc3)cs2)c1 [Compound 1af, 1-(3-Methoxybenzyl)-3-(4-(pyridin-4-yl)thiazol-2-yl)urea]
ROCK1
  IC50: 0.06 µM and 0.027 µM
ROCK2
  IC50: 0.01 µM and 0.011 µM

## COc1cccc(CNC(=O)Nc2nc(-c3ccncc3)cs2)c1 [Compound 1af-HCl, 1-(3-methoxybenzyl)-3-(4-(pyridin-4-yl)thiazol-2-yl)urea hydrochloride]
ROCK1; hydrochloride
  IC50: 0.023 ± 0.01 µM
ROCK2; hydrochloride
  IC50: 0.014 ± 0.01 µM

## COc1cccc(CNC(=O)Nc2nc(-c3ccncc3)cs2)c1 [Compound 1af-Mes, 1-(3-methoxybenzyl)-3-(4-(pyridin-4-yl)thiazol-2-yl)urea methanesulfonate]
ROCK1; methanesulfonate
  IC50: 0.03 ± 0.01 µM
ROCK2; methanesulfonate
  IC50: 0.01 µM

## O=C(NCc1ccc(Cl)cc1Cl)Nc1nc(-c2ccncc2)cs1 [Compound 1ag, 1-(2,4-Dichlorobenzyl)-3-(4-(pyridin-4-yl)thiazol-2-yl)urea]
ROCK1
  IC50: 1.88 ± 0.17 µM
ROCK2
  IC50: 0.4 ± 0.07 µM

## C[C@@H](NC(=O)Nc1nc(-c2ccncc2)cs1)c1ccccc1 [Compound 1ah, (R)-1-(1-Phenylethyl)-3-(4-(pyridin-4-yl)thiazol-2-yl)urea]
ROCK1; comparator 1aa
  fold more potent than parent compound 1aa: 7 fold
ROCK1; comparator: enantiomer (1ai for 1ah, 1bf for 1be)
  fold more potent/active than its enantiomer: 215 fold
ROCK1
  IC50: 0.043 µM and 0.019 µM
ROCK2
  IC50: 0.012 ± 0.004 µM

## C[C@H](NC(=O)Nc1nc(-c2ccncc2)cs1)c1ccccc1 [Compound 1ai, (S)-1-(1-Phenylethyl)-3-(4-(pyridin-4-yl)thiazol-2-yl)urea]
ROCK1
  IC50: 3.56 µM and 3.29 µM
ROCK2
  IC50: 1.6 µM and 1.9 µM

## O=C(NCc1cccc(F)c1)Nc1nc(-c2ccncc2)cs1 [Compound 1aj, 1-(3-Fluorobenzyl)-3-(4-(pyridin-4-yl)thiazol-2-yl)urea]
ROCK1
  IC50: 0.14 µM and 0.1 µM
ROCK2
  IC50: 0.06 µM and 0.05 µM

## O=C(NCc1ccco1)Nc1nc(-c2ccncc2)cs1 [Compound 1ak1, 1-(Furan-2-ylmethyl)-3-(4-(pyridin-4-yl)thiazol-2-yl)urea]
ROCK1
  IC50: 1.17 ± 0.15 µM
ROCK2
  IC50: 0.38 ± 0.03 µM

## O=C(NCc1ccc(F)cc1)Nc1nc(-c2ccncc2)cs1 [Compound 1ak, 1-(4-Fluorobenzyl)-3-(4-(pyridin-4-yl)thiazol-2-yl)urea]
ROCK1
  IC50: 0.57 ± 0.05 µM
ROCK2
  IC50: 0.19 µM

## COc1cccc(CNC(=O)N(C)c2nc(-c3ccncc3)cs2)c1 [Compound 1al, 3-(3-Methoxybenzyl)-1-methyl-1-(4-(pyridin-4-yl)thiazol-2-yl)urea]
ROCK1
  IC50: 0.06 ± 0.04 µM
ROCK2
  IC50: 0.002 ± 0.0015 µM

## COc1ccc(CNC(=O)Nc2nc(-c3ccncc3)cs2)cc1.Cl [Compound 1am-HCl, 1-(4-methoxybenzyl)-3-(4-(pyridin-4-yl)thiazol-2-yl)urea hydrochloride]
ROCK1; 50 μM compound
  ROCK1 % inhibition @ 50 μM: ROCK1 % inhibition @ 50 μM: 15.26 ± 0.91

## COc1ccc(CNC(=O)Nc2nc(-c3ccncc3)cs2)cc1 [Compound 1am-Mes, 1-(4-methoxybenzyl)-3-(4-(pyridin-4-yl)thiazol-2-yl)urea methanesulfonate]
ROCK1
  IC50: 36.2 ± 10 µM
ROCK2
  IC50: 7.42 ± 2.29 µM

## O=C(NCc1cccc(Cl)c1)Nc1nc(-c2ccncc2)cs1 [Compound 1an, 1-(3-Chlorobenzyl)-3-(4-(pyridin-4-yl)thiazol-2-yl)urea]
ROCK1
  IC50: 0.1 µM and 0.14 µM
ROCK2
  IC50: 0.06 ± 0.01 µM

## O=C(NCc1cccnc1)Nc1nc(-c2ccncc2)cs1 [Compound 1ao, 1-(Pyridin-3-ylmethyl)-3-(4-(pyridin-4-yl)thiazol-2-yl)urea]
ROCK1
  IC50: 0.91 ± 0.15 µM
ROCK2
  IC50: 0.49 ± 0.07 µM

## O=C(NCc1ccccn1)Nc1nc(-c2ccncc2)cs1 [Compound 1ap, 1-(Pyridin-2-ylmethyl)-3-(4-(pyridin-4-yl)thiazol-2-yl)urea]
ROCK1
  IC50: 1.82 ± 0.18 µM
ROCK2
  IC50: 1.44 ± 0.22 µM

## O=C(NCc1ccncc1)Nc1nc(-c2ccncc2)cs1 [Compound 1aq, 1-(4-(Pyridin-4-yl)thiazol-2-yl)-3-(pyridin-4-ylmethyl)urea]
ROCK1
  IC50: 2.07 ± 0.29 µM
ROCK2
  IC50: 1.47 ± 0.13 µM

## CN(Cc1ccccc1)C(=O)Nc1nc(-c2ccncc2)cs1 [Compound 1au, 1-Benzyl-1-methyl-3-(4-(pyridin-4-yl)thiazol-2-yl)urea]
ROCK1
  IC50: 0.11 ± 0.003 µM
ROCK2
  IC50: 0.07 ± 0.015 µM

## O=C(NCc1cccc2ccccc12)Nc1nc(-c2ccncc2)cs1 [Compound 1av, 1-(Naphthalen-1-ylmethyl)-3-(4-(pyridin-4-yl)thiazol-2-yl)urea]
ROCK1
  IC50: 1.1 ± 0.202 µM
ROCK2
  IC50: 0.58 ± 0.218 µM

## O=C(NCCc1ccccc1)Nc1nc(-c2ccncc2)cs1 [Compound 1aw, 1-Phenethyl-3-(4-(pyridin-4-yl)thiazol-2-yl)urea]
ROCK1; comparator 1aa
  fold decrease in ROCK1 activity/potency compared to parent compound 1aa: 3 fold
ROCK1
  IC50: 0.48 ± 0.037 µM
ROCK2
  IC50: 0.38 ± 0.107 µM

## O=C(NCc1ccc([N+](=O)[O-])cc1)Nc1nc(-c2ccncc2)cs1 [Compound 1az, 1-(4-Nitrobenzyl)-3-(4-(pyridin-4-yl)thiazol-2-yl)urea]
ROCK1; 50 μM compound
  inhibition at 50 µM: 34.5%

## COc1cc(CNC(=O)Nc2nc(-c3ccncc3)cs2)cc(OC)c1 [Compound 1bb, 1-(3,5-Dimethoxybenzyl)-3-(4-(pyridin-4-yl)thiazol-2-yl)urea]
ROCK1; 50 μM compound
  inhibition at 50 µM: 9.95%

## COc1cccc([C@@H](C)NC(=O)Nc2nc(-c3ccncc3)cs2)c1 [Compound 1bh, (R)-1-(1-(3-Methoxyphenyl)ethyl)-3-(4-(pyridin-4-yl)thiazol-2-yl)urea]
ROCK2
  IC50: 0.009 ± 0.007 µM

## O=C(NCc1cccc(O)c1)Nc1nc(-c2ccncc2)cs1 [Compound 1bo-HCl, 1-(3-hydroxybenzyl)-3-(4-(pyridin-4-yl)thiazol-2-yl)urea]
ROCK1
  IC50: 0.009 µM

## O=C(NCc1cccc(OC(F)(F)F)c1)Nc1nc(-c2ccncc2)cs1 [Compound 1br, 1-(4-(Pyridin-4-yl)thiazol-2-yl)-3-(3-(trifluoromethoxy)benzyl)urea]
ROCK1; 50 μM compound
  inhibition at 50 µM: 7.48%

## COc1ccc([C@H](C)NC(=O)Nc2nc(-c3ccncc3)cs2)cc1 [Compound 1by, (S)-1-(1-(4-methoxyphenyl)ethyl)-3-(4-(pyridin-4-yl)thiazol-2-yl)urea]
ROCK1; 50 μM compound
  inhibition at 50 µM: 1.09%

## C[C@H](NC(=O)Nc1nc(-c2ccncc2)cs1)c1cccc(Cl)c1 [Compound 1ce, (S)-1-(1-(3-chlorophenyl)ethyl)-3-(4-(pyridin-4-yl)thiazol-2-yl)urea]
ROCK1
  IC50: > 50 µM

## O=C(NCc1cc(Cl)cc(Cl)c1)Nc1nc(-c2ccncc2)cs1 [Compound 1cg, 1-(3,5-dichlorobenzyl)-3-(4-(pyridin-4-yl)thiazol-2-yl)urea]
ROCK1; 50 μM compound
  inhibition at 50 µM: -6.26%

## O=C(Nc1nc(-c2ccncc2)cs1)NC1Cc2ccccc2C1 [Compound 1cr, 1-(2,3-Dihydro-1H-inden-2-yl)-3-(4-(pyridin-4-yl)thiazol-2-yl)urea]
ROCK1; 50 μM compound
  inhibition at 50 µM: 40.9%

## O=C(NCc1nc2ccccc2[nH]1)Nc1nc(-c2ccncc2)cs1 [Compound 1cs, 1-((1H-Benzo[d]imidazol-2-yl)methyl)-3-(4-(pyridin-4-yl)thiazol-2-yl)urea]
ROCK1; 50 μM compound
  inhibition at 50 µM: 40.9%

## O=C(Nc1ccccc1)Nc1nc(-c2ccncc2)cs1 [Compound 6a, 1-Phenyl-3-(4-(pyridin-4-yl)thiazol-2-yl)urea]
ROCK1; 50 μM compound
  inhibition at 50 µM: 10.4%

## O=C(Nc1nc(-c2ccncc2)cs1)Nc1ccc(F)cc1F [Compound 6b, 1-(2,4-Difluorophenyl)-3-(4-(pyridin-4-yl)thiazol-2-yl)urea]
ROCK1; 50 μM compound
  inhibition at 50 µM: 14.5%

## O=C(Nc1ccc(F)cc1)Nc1nc(-c2ccncc2)cs1 [Compound 6c, 1-(4-Fluorophenyl)-3-(4-(pyridin-4-yl)thiazol-2-yl)urea]
ROCK1; 50 μM compound
  inhibition at 50 µM: 8.06%

## O=C(Nc1nc(-c2ccncc2)cs1)Nc1ccccc1F [Compound 6d, 1-(2-Fluorophenyl)-3-(4-(pyridin-4-yl)thiazol-2-yl)urea]
ROCK1; 50 μM compound
  inhibition at 50 µM: 13.3%

## O=C(NC(=O)c1ccccc1)Nc1nc(-c2ccncc2)cs1 [Compound 8, N-(4-(Pyridin-4-yl)thiazol-2-ylcarbamoyl)benzamide]
ROCK1; 50 μM compound
  inhibition at 50 µM: 16.3%

## O=C(Nc1nc(-c2ccncc2)cs1)N1CCN(Cc2ccccc2)C[C@@H]1Cc1ccccc1 [Compound 12b, (S)-2,4-Dibenzyl-N-(4-(pyridin-4-yl)thiazol-2-yl)piperazine-1-carboxamide]
ROCK1; 50 μM compound
  inhibition at 50 µM: 24.3%

## O=C(Nc1nc(-c2ccncc2)cs1)N1CCN(C(=O)c2ccco2)CC1 [Compound 12c, 4-(Furan-2-carbonyl)-N-(4-(pyridin-4-yl)thiazol-2-yl)piperazine-1-carboxamide]
ROCK1; 50 μM compound
  inhibition at 50 µM: 35%

## O=C(Nc1nc(-c2ccncc2)cs1)N1CCN(c2ccncn2)CC1 [Compound 12d, N-(4-(Pyridin-4-yl)thiazol-2-yl)-4-(pyrimidin-4-yl)piperazine-1-carboxamide]
ROCK1; 50 μM compound
  inhibition at 50 µM: 41.4%

## O=C(Nc1nc(-c2ccncc2)cs1)N1CCN(c2cccnc2)CC1 [Compound 12e, 4-(Pyridin-3-yl)-N-(4-(pyridin-4-yl)thiazol-2-yl)piperazine-1-carboxamide]
ROCK1; 50 μM compound
  inhibition at 50 µM: 14%

## O=C(Nc1nc(-c2ccncc2)cs1)N1CCN(CC2CCCO2)CC1 (stereo not shown) [Compound 12f, N-(4-(Pyridin-4-yl)thiazol-2-yl)-4-((tetrahydrofuran-2-yl)methyl)piperazine-1-carboxamide]
ROCK1; 50 μM compound
  inhibition at 50 µM: -0.21%

Reference: patent US9221808B2, “Pyridylthiazole-based ureas as inhibitors of Rho associated protein kinase (ROCK) and methods of use” (H. Lee Moffitt Cancer Center and Research Institute, Inc., priority 2010, dated 2015)
